Experimental data: patent US12528819B2 (priority 2016, dated 2026)
“Also recorded” adds a separate entry of the source. Like-named read-outs stand apart in the source and are kept apart here.

Assays:
GABAA α5 receptor = target: T1, GABAA α5 receptor (Rattus norvegicus, UniProt P18508+P19969); experiment: GABAA α5 receptor occupancy with Ro 15-4513 tracer (hippocampus vs cerebellum); type: in vivo; conditions: for % RO (L-655,708 Method): young Long Evans rats
T1 construct: from tissue; host or cells: rat brain in vivo; hippocampus versus cerebellum
T1 sequence (P19969 32-464 limits assumed): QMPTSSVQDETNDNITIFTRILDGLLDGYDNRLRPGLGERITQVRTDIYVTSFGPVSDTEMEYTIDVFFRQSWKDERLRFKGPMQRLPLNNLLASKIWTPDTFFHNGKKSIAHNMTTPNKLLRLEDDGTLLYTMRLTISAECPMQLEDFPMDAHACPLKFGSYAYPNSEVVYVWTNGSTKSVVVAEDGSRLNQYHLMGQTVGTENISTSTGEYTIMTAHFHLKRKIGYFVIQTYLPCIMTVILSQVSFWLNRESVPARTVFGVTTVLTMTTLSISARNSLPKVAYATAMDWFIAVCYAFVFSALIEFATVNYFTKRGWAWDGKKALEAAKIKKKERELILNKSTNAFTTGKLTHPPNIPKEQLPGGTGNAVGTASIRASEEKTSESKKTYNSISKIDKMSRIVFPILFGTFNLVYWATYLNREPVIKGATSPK
T1 sequence (P18508 39-466): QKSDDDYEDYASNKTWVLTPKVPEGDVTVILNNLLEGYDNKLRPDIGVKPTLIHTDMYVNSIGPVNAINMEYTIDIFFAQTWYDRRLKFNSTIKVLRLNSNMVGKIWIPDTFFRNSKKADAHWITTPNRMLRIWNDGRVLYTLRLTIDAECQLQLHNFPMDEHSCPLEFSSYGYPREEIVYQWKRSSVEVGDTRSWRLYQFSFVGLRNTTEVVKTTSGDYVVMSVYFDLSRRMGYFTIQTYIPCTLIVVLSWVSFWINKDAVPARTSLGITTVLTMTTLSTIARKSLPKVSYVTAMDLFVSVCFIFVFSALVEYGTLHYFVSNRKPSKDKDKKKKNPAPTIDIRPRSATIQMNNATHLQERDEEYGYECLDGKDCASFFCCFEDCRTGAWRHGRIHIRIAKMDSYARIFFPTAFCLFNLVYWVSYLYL
Description: (§1) Food and water were available ad libitum.

aged-impaired (AI) rats = experiment: Radial Arm Maze (RAM) behavioral task, spatial memory retention; type: in vivo, rat; conditions: two-hour delay
Procedure: The effects of methyl 3,5-diphenylpyridazine-4-carboxylate on the in vivo spatial memory retention of aged-impaired (AI) rats were assessed in a Radial Arm Maze (RAM) behavioral task using vehicle control and four different dosage levels of methyl 3,5-diphenylpyridazine-4-carboxylate (0.1 mg/kg, 0.3 mg/kg, 1 mg/kg and 3 mg/kg, ip). RAM behavioral tasks were performed on eight AI rats. All five treatment conditions (vehicle and four dosage levels) were tested on all eight rats.
The RAM apparatus used consisted of eight equidistantly-spaced arms. An elevated maze arm (7 cm width×75 cm length) projected from each facet of an octagonal center platform (30 cm diameter, 51.5 cm height). Clear side walls on the arms were 10 cm high and were angled at 65° to form a trough. A food well (4 cm diameter, 2 cm deep) was located at the distal end of each arm. Froot Loops™ (Kellogg Company) were used as rewards. Blocks constructed of Plexiglas™ (30 cm height×12 cm width) could be positioned to prevent entry to any arm. Numerous extra maze cues surrounding the apparatus were also provided.
The AI rats were initially subjected to a pre-training test (Chappell et al. Neuropharmacology 37: 481-487, 1998). The pre-training test consisted of a habituation phase (4 days), a training phase on the standard win-shift task (18 days) and another training phase (14 days) in which a brief delay was imposed between presentation of a subset of arms designated by the experimenter (e.g., 5 arms available and 3 arms blocked) and completion of the eight-arm win-shift task (i.e., with all eight arms available).
In the habituation phase, rats were familiarized to the maze for an 8-minute session on four consecutive days. In each of these sessions, food rewards were scattered on the RAM, initially on the center platform and arms and then progressively confined to the arms. After this habituation phase, a standard training protocol was used, in which a food pellet was located at the end of each arm. Rats received one trial each day for 18 days. Each daily trial terminated when all eight food pellets had been obtained or when either 16 choices were made or 15 minutes had elapsed. After completion of this training phase, a second training phase was carried out in which the memory demand was increased by imposing a brief delay during the trial. At the beginning of each trial, three arms of the eight-arm maze were blocked. Rats were allowed to obtain food on the five arms to which access was permitted during this initial “information phase” of the trial. Rats were then removed from the maze for 60 seconds, during which time the barriers on the maze were removed, thus allowing access to all eight arms. […]

[1] = type: in vivo, rat; conditions: for Hippocampus exposure / Plasma exposure / Young Hippocampus exposure / Young Plasma exposure: young Long Evans rats; for Aged Hippocampus exposure / Aged Plasma exposure: aged Long Evans rats
Procedure: as §1
For plasma exposures, blood samples were centrifuged at 14000 rpm for 16 minutes. After centrifuging, 50 ul of supernatant (plasma) from each sample was added to 200 μl of acetonitrile plus 0.1% formic acid. […] Samples were sonicated for 5 minutes in an ultrasonic water bath, followed by centrifugation for 30 minutes, at 16000 RPM. 100 ul of supernatant was removed from each sample vial and placed in a new glass auto sample vial, followed by the addition of 300 μl of sterile water (pH 6.5).
Additional studies were conducted in aged Long-Evans rats in order to determine the exposures at the behaviorally relevant doses in the cognition studies. Exposure in young Long-Evans rats was also determined to bridge with the receptor occupancy studies that were conducted in young Long-Evans rats. Exposures in young and aged Long-Evans rats were relatively similar (Table 4, FIG. 4).

α5-containing GABAA R = target: T2, α5-containing GABAA R (Homo sapiens, UniProt P18507+P31644); conditions: EC20; cited from earlier work
T2 sequence (P31644 32-462): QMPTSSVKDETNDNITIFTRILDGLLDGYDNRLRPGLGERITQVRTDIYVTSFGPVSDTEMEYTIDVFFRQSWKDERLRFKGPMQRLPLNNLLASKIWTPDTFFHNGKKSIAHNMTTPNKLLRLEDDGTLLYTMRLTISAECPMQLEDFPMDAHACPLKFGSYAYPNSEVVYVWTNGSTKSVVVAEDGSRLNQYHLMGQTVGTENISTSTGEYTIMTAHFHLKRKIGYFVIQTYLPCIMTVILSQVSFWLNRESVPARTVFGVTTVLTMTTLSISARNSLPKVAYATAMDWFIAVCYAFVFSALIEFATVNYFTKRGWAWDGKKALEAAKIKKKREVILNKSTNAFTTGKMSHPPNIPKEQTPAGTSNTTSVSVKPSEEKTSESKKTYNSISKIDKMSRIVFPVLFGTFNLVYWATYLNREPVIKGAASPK
T2 sequence (P28472 26-473 partner): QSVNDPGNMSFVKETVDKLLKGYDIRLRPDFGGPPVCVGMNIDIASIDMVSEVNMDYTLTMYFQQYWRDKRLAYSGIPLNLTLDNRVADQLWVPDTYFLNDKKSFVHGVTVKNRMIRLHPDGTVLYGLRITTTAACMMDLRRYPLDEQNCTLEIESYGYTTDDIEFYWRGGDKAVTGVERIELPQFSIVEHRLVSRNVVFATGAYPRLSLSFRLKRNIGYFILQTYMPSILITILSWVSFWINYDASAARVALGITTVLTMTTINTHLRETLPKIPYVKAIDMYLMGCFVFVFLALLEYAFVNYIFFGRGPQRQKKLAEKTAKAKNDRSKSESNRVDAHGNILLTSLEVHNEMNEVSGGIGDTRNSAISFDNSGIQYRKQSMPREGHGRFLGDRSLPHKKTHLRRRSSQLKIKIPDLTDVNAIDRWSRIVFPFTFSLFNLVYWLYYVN
T2 sequence (P18507 40-467 limits assumed): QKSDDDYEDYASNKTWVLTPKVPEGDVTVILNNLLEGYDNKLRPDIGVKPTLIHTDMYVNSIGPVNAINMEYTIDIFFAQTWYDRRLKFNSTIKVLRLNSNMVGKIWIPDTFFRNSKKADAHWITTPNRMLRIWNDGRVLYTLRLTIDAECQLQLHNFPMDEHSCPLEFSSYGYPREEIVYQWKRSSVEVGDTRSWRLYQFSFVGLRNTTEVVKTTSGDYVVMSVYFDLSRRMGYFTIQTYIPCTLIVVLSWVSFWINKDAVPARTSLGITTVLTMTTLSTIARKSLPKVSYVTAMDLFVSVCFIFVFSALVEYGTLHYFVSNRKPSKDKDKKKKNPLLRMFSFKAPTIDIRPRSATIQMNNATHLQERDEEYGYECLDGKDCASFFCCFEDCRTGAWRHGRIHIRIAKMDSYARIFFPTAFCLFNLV

## COC(=O)c1c(-c2ccccc2)cnnc1-c1ccccc1 [methyl 3,5-diphenylpyridazine-4-carboxylate]
GABAA α5 receptor; 0.01 mg/kg i.v.
  % RO (L-655,708 Method): 19.2%
GABAA α5 receptor; 0.1 mg/kg i.v.
  % RO (L-655,708 Method): 16.4%
GABAA α5 receptor; 1 mg/kg i.v.
  % RO (L-655,708 Method): 38.5%
GABAA α5 receptor; 0.01-10 mg/kg, i.v.
  effect on Ro 15-4513 binding in hippocampus: dose-dependently reduced; also recorded: blocked
  effect on Ro 15-4513 levels (binding) in cerebellum: without affecting; also recorded: did not affect
GABAA α5 receptor; at exposures behaviorally active in aged-impaired rats (FIG. 4)
  GABAA α5 receptors occupied: about 32%
GABAA α5 receptor; rat, iv, 10 mg/kg
  receptor occupancy at 10 mg/kg: > 90%
GABAA α5 receptor; rat, iv, ratio method
  ED50: 1.8 mg/kg
aged-impaired (AI) rats; 3 mg/kg ip
  average no. of errors ± SEM, retention test: 1.31±0.40
aged-impaired (AI) rats; 3 mg/kg, t(7)=4.233, p=0.004
  memory performance relative to vehicle control: significantly improved memory performance
[1]; 0.01 mg/kg i.v.
  Hippocampus exposure: BQL
  Plasma exposure: BQL
[1]; 0.1 mg/kg i.v.
  Plasma exposure: BQL
[1]; 1 mg/kg i.v.
  Hippocampus exposure: 180.0 ng/g
[1]; 1 mg/kg ip
  Aged Hippocampus exposure: 38.8 ng/g
  Aged Plasma exposure: 45.2 ng/mL
  Young Hippocampus exposure: 25.9 ng/g
  Young Plasma exposure: 20.0 ng/mL
[1]; 3 mg/kg ip
  Aged Hippocampus exposure: 177.5 ng/g
  Aged Plasma exposure: 196 ng/mL
  Young Hippocampus exposure: 129.1 ng/g
  Young Plasma exposure: 132.9 ng/mL
[1]; Long Evans, rat, in vivo
  brain/plasma ratios: > 1
[1]; dose from 0.1 to 1 mg/kg, i.v.
  increase in hippocampal exposure: 12 fold
[1]; dose from 1 to 10 mg/kg, i.v.
  increase in hippocampal exposure: ~5 fold
  increase in plasma exposure: 12 fold
α5-containing GABAA R
  α5 in vitro efficacy: +27
